Columns and labels:
[1] = system: human prostate carcinoma PC-3 cells; test: CCK-8 cytotoxic activity assay, PC-3; type: cell-based; conditions: CCK-8, 48 h
Description: (§1) Human prostate carcinoma PC-3 cells and human proximal tubular HK-2 cells purchased from Chinese National Collection of Authenticated Cell Cultures were cultured in RPMI 1640 medium containing FBS (10%, Gibco, CA, USA) and Penicillin-Streptomycin (1%, Gibco, CA, USA). The cells were cultured at a concentration of 5% CO2 and a temperature of 37 ℃, and the medium was changed every two days.
(§2) CCK-8 assay was used to evaluate the proliferation and cytotoxicity of Curcusone C and its derivatives. Cells of 100 µL with a concentration of 5000 cells/mL to 8000 cells/mL were inoculated in 96-well plates for culturing 24 h, and the blank well was added with equal volume medium. After cell adhesion, 10 µL Curcusone C solution or its derivatives were added to each well of the experimental groups except the blank well to the final concentration of drug was 1 mM, […] respectively, and 10 µL DMSO (drug solvent) was added to the control well. The liquid was discarded 48 h later, and 100 µL medium and 10 µL CCK-8 reagent (Beyotime, Shanghai, China) were added to each well. After incubation for 0.5 to 1 h, the absorbance valued at 450 nm was measured and the cell inhibition rate or survival rate was calculated. Cell inhibition rate= […].

[2] = system: human proximal tubular HK-2 cells; test: CCK-8 cytotoxic activity assay, HK-2 normal cells; type: cell-based; conditions: HK-2, 48 h, CCK-8, 48 h
Description: as §1, §2

[3] = Tolerance and organ toxicity in tumor-bearing nude mice (body weight, HE staining); type: in vivo
Description: (§3) PC-3 cells in logarithmic growth phase were collected and the total number of cells required was calculated. Cells were re-suspended in a suitable volume of PBS and added to matrigel (PBS: matrigel = 1:1(v/v)) at a concentration of 5 × 10^6 cells/mL for subcutaneous inoculation on the right side of Balb/C nude mice. On day 0, 0.1 mL 5 × 10^6 cells/mL cell suspension (PBS: matrigel = 1:1(v/v)) was subcutaneously inoculated on the right neck and back of each nude mouse except the mice of normal group, to establish PC-3 subcutaneously transplanted tumor model. On day 8 after cell inoculation, the tumor grew to an average volume of 140.3 mm^3. The groups were randomly divided into normal group (Normal), control group (Control), methotrexate group (MTX 4.8 mg/kg), low dose group (C 5 mg/kg), medium dose group (C 10 mg/kg) and high dose group (C 20 mg/kg). Except for 3 mice in the normal group, 6 mice in the other groups were administered twice a week via tail vein (BIW). After 2 weeks of dosing, the dose was changed to once a day (QD). After 2 days of QD administration, tail vein injection was changed to intraperitoneal administration, and QD administration was continued for 5 days. Pharmacodynamic activity was evaluated based on tumor inhibition rate (TGITV) and tolerance was evaluated based on animal weight change and death. At the end of the experiment, all the animals were bled under isoflurane anesthesia and the serum was extracted. The heart, liver, spleen, lung and kidney of each nude mouse were collected and fixed in 4% paraformaldehyde or quick-frozen in liquid nitrogen and stored at -80 ℃ for tissue protein extraction.
(§4) Tissue samples were embedded, sectioned, dewaxed, stained, dehydrated and transparent, and sealed with neutral gum. After drying in a ventilated place, observing and recording under a microscope, the sections were stored at room temperature.

PCBP2 [4] = test: Western blot of PCBP2 in PC-3 cells; type: cell-based, human; conditions: different concentrations
Description: (§5) The culture medium containing PC-3 cells was discarded, lysis buffer was added, and the cells were collected with a scraper. The sample is then transferred to a centrifuge tube and the cells are fully lysed. Centrifuge the tube at 12,000 g and 4 ℃ for 10 min. After taking the supernatant, mix with the protein: protein loading buffer (v/v) = 5:1 ratio, and boil at 95 ℃ for 10 min to fully denaturate the protein. BCA protein concentration assay kit (Beyotime, China) was used to quantify the protein of experimental samples. Equal amounts of protein (30 µg) were loaded onto 7.5-12.5% SDS-PAGE gel. After adding the sample, the target protein was separated at 140 V constant pressure and was transferred under the condition of 250 mA constant current and the highest voltage. The transferred PVDF membrane (Thermo Fisher Scientific, MA, USA) was sealed in 5% skim milk (BIOFRox, Germany) for 2 h. The membrane was incubated in the antibody diluent of the corresponding protein at 4 ℃ overnight in a shaker and washed with TBST (Gibco, USA) for three times. Then it was placed in secondary antibody diluent for incubating 1.5 h at 4 ℃ in a shaker and washed again for three times. Finally, appropriate amount of ECL luminescent solution was taken to infiltrate PVDF membrane for development, and the strip was exposed and recorded.

PCBP2 protein = PCBP2 protein (Homo sapiens, UniProt Q15366); test: SPR binding to immobilized PCBP2 (CM5 chip); conditions: analyte 31.25–500 µM
Chain of PCBP2 protein (Q15366 whole entry): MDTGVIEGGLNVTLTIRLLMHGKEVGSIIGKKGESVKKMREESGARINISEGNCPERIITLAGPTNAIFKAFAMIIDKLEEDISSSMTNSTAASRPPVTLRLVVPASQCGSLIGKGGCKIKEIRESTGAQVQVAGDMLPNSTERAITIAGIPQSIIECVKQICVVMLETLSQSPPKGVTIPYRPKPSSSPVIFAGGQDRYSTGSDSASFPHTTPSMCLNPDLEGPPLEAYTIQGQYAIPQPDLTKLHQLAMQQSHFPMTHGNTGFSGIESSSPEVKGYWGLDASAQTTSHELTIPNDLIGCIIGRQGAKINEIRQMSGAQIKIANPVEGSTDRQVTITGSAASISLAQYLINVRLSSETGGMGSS
Description: The PCBP2 protein was first immobilized on the CM5 microarray using […], and then the analyte was run using a multi-cycle method. Briefly, small molecules were diluted to different concentrations with Running Buffer, and injected into channel Fc1-Fc2 at a flow rate of 30 µl/min. The association period was 60 s, and then dissociated for 90 s. The association and dissociation processed in the Running Buffer.

[5] = system: PCBP2, FHL3, TGF-β1, phosphorylated Smad2 and phosphorylated Smad7; test: Immunohistochemistry of tumor tissues of nude mice; type: in vivo, Balb/C nude mice
Description: Paraffin sections underwent successively dewaxing to water, antigen repair, blocking of endogenous peroxidase, serum blocking, primary antibody incubation, secondary antibody reaction, DAB color development, counterstaining of nuclei, dehydration and sealing, image acquisition and analysis, and microscopic examination.

PCBP2 [6] = test: DARTS (pronase digestion of PCBP2 in PC-3 protein extract); type: binding, human; conditions: 100 µM
Description: PC-3 cells protein was extracted, and the protein concentration was adjusted to 5 mg/mL and was packed into 99 µL/tube. Then, 10 mM and 5 mM Curcusone C solution of 1 µL was added to protein mixture of 99 µL and gently shaken at room temperature for 1 h. After the compounds were completely incubated, the samples were divided into one part every 20 µL, and 2 µL pronase solution with a certain concentration was added. The control group was added with 2 µL TNC buffer and incubated at room temperature for 30 min to ensure the same digestion time in each group. Digestion was terminated with 20X protease inhibitor complex and incubated on ice for 10 min. Finally, 6 µL 5X protein loading buffer was added to each sample and boiled at 100 ℃ for 10 min to fully denaturate the protein. The samples were centrifuged at 1100 g and 4 ℃ for 1 min and were performed western blot.

[7] = system: PC-3 subcutaneously transplanted tumor; test: PC-3 subcutaneously transplanted tumor model in nude mice; type: in vivo, Balb/C nude mice; conditions: for tumor weight: last day of administration, control group 2885.5 ± 432.0 mg
Description: as §3, §4
Mouse tumor tissues were fixed with 4% PFA and washed with PBS, and TUNEL staining was performed with TUNEL apoptosis detection kit according to manufacturer’s instructions. Cell nucleus were stained with DAPI, slides were rinsed and imaged with fluorescence microscopy, and finally apoptosis was analyzed with image analyzer.

[8] = system: Bax, Bcl-2, caspase-3 and PARP proteins in PC-3 cells; test: Western blot of mitochondrial apoptosis pathway proteins in PC-3 cells; type: cell-based, human; conditions: increasing concentration
Description: as §5

C=C(C)[C@@H](CCC(=O)COC(C)=O)c1cc2c(c(=O)c(C)c1)C[C@@](C)(O)C2=O [Derivative C-10]
IC50 ([1]; PC-3, 48 h): > 20 µM

C=C(C=O)[C@H]1CCC(O)(CCl)C2C3=C(C[C@@](C)(O)C3=O)C(=O)C(C)=CC21 (stereo partly shown) [Derivative C-4]
IC50 ([1]; PC-3, 48 h): 2.35 ± 0.37 µM

C=C(COC(=O)CC(=O)OC)[C@H]1CCC(O)(CCl)C2C3=C(C[C@@](C)(O)C3=O)C(=O)C(C)=CC21 (stereo partly shown) [Derivative C-9]
IC50 ([1]; PC-3, 48 h): 5.97 ± 1.16 µM

C=C1CC[C@H](C(=C)C)[C@H]2C=C(C)C(=O)C3=C(C(=O)[C@](C)(O)C3)[C@H]12 [Curcusone C]
IC50 [2]: > 20 µM
HE staining of lung tissue ([3]; 20 mg/kg): no interstitial thickening of lung tissue
body weight of nude mice ([3]; 20 mg/kg): weight loss due to intolerance at the initial stage of drug administration
HE staining of renal tissue ([3]; after administration of Curcusone C): no obvious abnormality
HE staining of heart, liver, spleen, lung and kidney ([3]; compared with the normal group): no significant changes
relative content of PCBP2 in PC-3 cells (PCBP2 [4]): decreased with the increase of drug concentration
Kd (PCBP2 protein): 3150 µM
changes of TGF-β1, P-Smad2 and P-smad7 proteins in tumor tissues ([5]; IHC): downward trend
content of FHL3 protein in tumor tissues ([5]; IHC, 20 mg/kg): higher than that in Control group
expression of PCBP2 protein in tumor tissues ([5]; IHC, 5, 10, 20 mg/kg): decreased with the increase of drug concentration
amount of enzymolysis by pronase of PCBP2 (PCBP2 [6]): lower than that of control group
IC50 ([1]; PC-3, 48 h): ~3.24 µM
TUNEL apoptotic signal in tumor tissue ([7]; 5 mg/kg): no apoptotic cell signal
tumor inhibition rate ([7]; 5 mg/kg): 18%
tumor weight ([7]; 5 mg/kg): 2356.7 ± 445.7 mg
TUNEL apoptotic signal in tumor tissue ([7]; 10 mg/kg): red marker signal
tumor inhibition rate ([7]; 10 mg/kg): 33%
tumor weight ([7]; 10 mg/kg): 1925.6 ± 242.1 mg
HE staining of tumor tissue ([7]; 20 mg/kg): nuclear pyknosis and lysis
TUNEL apoptotic signal in tumor tissue ([7]; 20 mg/kg): most obvious apoptotic signal
tumor inhibition rate ([7]; 20 mg/kg): about 39%
tumor weight ([7]; 20 mg/kg): 1759.6 ± 448.7 mg
level of Bcl-2 in PC-3 cells [8]: decreased gradually
relative expression levels of Bax, cleaved caspase-3 and cleaved PARP in PC-3 cells [8]: increased gradually

CN(Cc1cnc2nc(N)nc(N)c2n1)c1ccc(C(=O)N[C@@H](CCC(=O)O)C(=O)O)cc1 [Methotrexate, reference compound]
IC50 [2]: ~3.21 µM
HE staining of kidney (glomerulus in the renal cortex) ([3]; 4.8 mg/kg): severe pyknosis
HE staining of lung tissue ([3]; 4.8 mg/kg): significant pulmonary interstitial thickening and pneumonic pathological manifestations
IC50 ([1]; PC-3, 48 h): 0.89 ± 0.22 µM
HE staining of tumor tissue ([7]; 4.8 mg/kg): nuclear pyknosis and lysis
TUNEL apoptotic signal in tumor tissue ([7]; 4.8 mg/kg): most obvious apoptotic signal
tumor inhibition rate ([7]; 4.8 mg/kg): 48%
tumor weight ([7]; 4.8 mg/kg): 1503.4 ± 243.0 mg

C=C(CCl)[C@H]1CCC(O)(CCl)C2C3=C(C[C@@](C)(O)C3=O)C(=O)C(C)=CC21 (stereo partly shown) [Derivative C-13]
IC50 [1]: 2.96 ± 0.37 µM

C=C(COc1ccc([N+](=O)[O-])cc1)[C@@H](CCC(=O)COc1ccc([N+](=O)[O-])cc1)c1cc2c(c(=O)c(C)c1)C[C@@](C)(O)C2=O [Derivative C-12]
IC50 [1]: > 20 µM

C=C(C)[C@@H](CCC(=O)CN(CC)CC)c1cc2c(c(=O)c(C)c1)C[C@@](C)(O)C2=O [Derivative C-11]
IC50 ([1]; PC-3, 48 h): > 20 µM

C=C(COC(=O)/C=C/C=C/C)[C@H]1CCC(O)(CCl)C2C3=C(C[C@@](C)(O)C3=O)C(=O)C(C)=CC21 (stereo partly shown) [Derivative C-6]
IC50 ([1]; PC-3, 48 h): 1.81 ± 0.18 µM

C=C1CC[C@H](C(=C)C)C2C=C(C)C(=O)C3=C(C(=O)[C@](C)(Cl)C3)C12 (stereo partly shown) [Derivative C-1]
IC50 ([1]; PC-3, 48 h): 3.74 ± 0.4 µM

C#CCCCC(=O)O[C@]1(C)CC2=C(C1=O)C1C(=C)CC[C@H](C(=C)C)C1C=C(C)C2=O (stereo partly shown) [Positive probes]
IC50 ([1]; PC-3, 48 h): 7.34 ± 0.2 µM

C=C(C)[C@H]1CCC(O)(CI)C2C3=C(C[C@@](C)(O)C3=O)C(=O)C(C)=CC21 (stereo partly shown) [Derivative C-3]
IC50 ([1]; PC-3, 48 h): 10.3 ± 0.58 µM

C=C(COC(C)=O)[C@H]1CCC(O)(CCl)C2C3=C(C[C@@](C)(O)C3=O)C(=O)C(C)=CC21 (stereo partly shown) [Derivative C-8]
IC50 ([1]; PC-3, 48 h): 9.49 ± 0.17 µM

C=C(C)[C@H]1CCC(O)(CCl)C2C3=C(C[C@@](C)(O)C3=O)C(=O)C(C)=CC21 (stereo partly shown) [Derivative C-2]
IC50 ([1]; PC-3, 48 h): 6.4 ± 0.38 µM

C=C(CO)[C@H]1CCC(O)(CCl)C2C3=C(C[C@@](C)(O)C3=O)C(=O)C(C)=CC21 (stereo partly shown) [Derivative C-7]
IC50 ([1]; PC-3, 48 h): 16.3 ± 3.25 µM

C=C(C)C(=O)OCC(=C)[C@H]1CCC(O)(CCl)C2C3=C(C[C@@](C)(O)C3=O)C(=O)C(C)=CC21 (stereo partly shown) [Derivative C-5]
IC50 ([1]; PC-3, 48 h): 2.05 ± 0.96 µM

Source: publication PMC10563230, “Unveiling poly(rC)-binding protein 2 as the target protein for curcusone C against prostate cancer: mechanism validation through click chemistry-activity based proteomics profiling approach” (BMC Cancer, 2023)
